Laboratory results published in patent publication US10611760B2, “Therapeutic compounds as inhibitors of the orexin-1 receptor” (C4X Discovery Limited, priority 2014, dated 2020).

How the values were obtained:
[1] = molecular target: T1, hOX2R (Homo sapiens, UniProt O43614); experiment: Intracellular calcium measurements using division-arrested cells, OX2; assay type: cell-based; settings: agonist orexin B at 2×EC50, * = single experiment, otherwise average of at least two, read-out: pIC50 OX2 (converted)
T1 sequence (O43614 1-444): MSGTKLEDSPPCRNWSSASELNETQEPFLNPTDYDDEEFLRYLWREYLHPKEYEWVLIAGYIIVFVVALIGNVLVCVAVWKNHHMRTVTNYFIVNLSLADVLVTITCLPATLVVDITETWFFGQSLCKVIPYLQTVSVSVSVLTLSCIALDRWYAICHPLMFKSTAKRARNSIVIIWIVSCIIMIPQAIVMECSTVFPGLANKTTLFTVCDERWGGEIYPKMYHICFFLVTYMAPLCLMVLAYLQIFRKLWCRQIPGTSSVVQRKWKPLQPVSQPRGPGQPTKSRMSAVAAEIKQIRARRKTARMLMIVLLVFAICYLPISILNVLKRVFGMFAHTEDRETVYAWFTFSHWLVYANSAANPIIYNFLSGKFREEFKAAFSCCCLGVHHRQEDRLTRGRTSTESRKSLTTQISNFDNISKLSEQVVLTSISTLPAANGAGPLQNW
Procedure: (§1) Intracellular Calcium Measurements Using Division-arrested Cells (Table 1):
(§2) Test compounds are prepared as 10 mM stock solutions in DMSO, then serially diluted in half log concentrations with DMSO followed by dilution with assay buffer (HBSS (Sigma-Aldrich, H8264) containing 20 mM HEPES (Sigma-Aldrich, H4034), 0.1% (w/v) bovine serum albumin and adjusted to pH 7.4) to a top final assay concentration of 10 μM.
(§3) Human OX1 (CT-A474) and human OX2 (CT-A475) receptor-expressing division-arrested cells are plated into 384 well black, clear bottom, cell-bind plates at a seeding density of 10,000 cells/50 μL growth media. The seeded plates are incubated at 37° C. in air supplemented with 5% CO2 for 16 hrs.
(§4) The media is removed and replaced with 30 μL/well of cell loading buffer (a vial of Calcium 5 is solubilized in 22 mL of assay buffer to which a freshly prepared 250 mM solution of probenecid in 1:1 1M NaOH to assay buffer (200 μL) is added) and the cells incubated for 1 hr at 37° C. The serially diluted test compounds (10 μL/well) are added to the plate, which is then incubated for 10 mins and placed in a FlexStation III reader.

[2] = molecular target: T2, hOX1R (Homo sapiens, UniProt O43613); experiment: Intracellular calcium measurements using division-arrested cells, OX1; assay type: cell-based; settings: agonist orexin A at 2×EC50, * = single experiment, otherwise average of at least two, read-out: pIC50 OX1 (converted)
T2 sequence (O43613 1-425): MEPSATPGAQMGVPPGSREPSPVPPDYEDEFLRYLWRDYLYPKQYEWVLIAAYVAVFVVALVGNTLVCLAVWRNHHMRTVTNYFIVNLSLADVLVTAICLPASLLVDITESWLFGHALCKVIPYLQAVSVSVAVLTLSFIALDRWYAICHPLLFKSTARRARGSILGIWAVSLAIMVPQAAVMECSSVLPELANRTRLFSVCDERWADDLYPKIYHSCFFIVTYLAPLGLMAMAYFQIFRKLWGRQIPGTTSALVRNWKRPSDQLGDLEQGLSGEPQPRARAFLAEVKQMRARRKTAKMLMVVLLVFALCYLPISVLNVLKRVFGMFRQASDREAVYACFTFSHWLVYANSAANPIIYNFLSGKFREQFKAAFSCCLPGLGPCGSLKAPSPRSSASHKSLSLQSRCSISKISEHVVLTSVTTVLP
Procedure: as §1, §2, §3, §4

| Compound | IC50 [1] | IC50 [2] |
| --- | --- | --- |
| CC(C)[C@@H](CNc1ccc(Cl)cn1)N(C)C(=O)c1c(-c2ccccc2)[nH]c2ccccc12 [Example 27, (S)—N-(1-((5-chloropyridin-2-yl)amino)-3-methylbutan-2-yl)-N-methyl-2-phenyl-1H-indole-3-carboxamide] | 501 nM | 158 nM |
| CC[C@@H](CNc1ccc(Cl)cn1)N(C)C(=O)c1cc(C(F)(F)F)ccc1-n1nccn1 [Example 17, (S)—N-(1-((5-chloropyridin-2-yl)amino)butan-2-yl)-N-methyl-2-(2H-1,2,3-triazol-2-yl)-5-(trifluoromethyl)benzamide] |  | 200 nM |
| CC[C@@H](CNc1ccc(Cl)cn1)N(C)C(=O)c1cc(N(C)C)ccc1-n1nccn1 [Example 23, (S)—N-(1-((5-chloropyridin-2-yl)amino)butan-2-yl)-5-(dimethylamino)-N-methyl-2-(2H-1,2,3-triazol-2-yl)benzamide] | 2510 nM | 25.1 nM |
| CC[C@@H](CNc1ccc(Cl)cn1)N(C)C(=O)c1cc(F)ccc1-n1nccn1 [Example 18, (S)—N-(1-((5-chloropyridin-2-yl)amino)butan-2-yl)-5-fluoro-N-methyl-2-(2H-1,2,3-triazol-2-yl)benzamide] | > 10000 nM | 79.4 nM |
| CC(C)[C@@H](CNC(=O)Nc1ccccc1)N(C)C(=O)c1ccccc1-c1ccccc1 [Example 58, (S)—N-methyl-N-(3-methyl-1-(3-phenylureido)butan-2-yl)-[1,1′-biphenyl]-2-carboxamide] | > 5010 nM | 126 nM |
| Cc1cc(C)nc(OC[C@H](C(C)C)N(C)C(=O)c2ccccc2-c2ccccc2)n1 [Example 30, (S)—N-(1-((4,6-dimethylpyrimidin-2-yl)oxy)-3-methylbutan-2-yl)-N-methyl-[1,1′-biphenyl]-2-carboxamide] | > 5010 nM | 1580 nM |
| CC[C@@H](CNc1ccc(C(F)(F)F)nc1)N(C)C(=O)c1nc(C)ccc1-n1nccn1 [Example 55, (S)—N,6-dimethyl-3-(2H-1,2,3-triazol-2-yl)-N-(1-((6-(trifluoromethyl)pyridin-3-yl)amino)butan-2-yl)picolinamide] |  | 79.4 nM |
| CC[C@@H](CNc1ccc(Cl)cn1)N(C)C(=O)c1nc(C)ccc1-n1nccn1 [Example 21, (S)—N-(1-((5-chloropyridin-2-yl)amino)butan-2-yl)-N,6-dimethyl-3-(2H-1,2,3-triazol-2-yl)picolinamide] |  | 7.94 nM |
| CC[C@@H](CNc1ccc(Cl)cn1)N(C)C(=O)c1cc(C)ccc1N1CCOCC1 [Example 22, (S)—N-(1-((5-chloropyridin-2-yl)amino)butan-2-yl)-N,5-dimethyl-2-morpholinobenzamide] | > 10000 nM |  |
| CC[C@@H](CNc1cnc(C(F)(F)F)cn1)N(C)C(=O)c1cc(Cl)ccc1-n1nccn1 [Example 40, (S)-5-chloro-N-methyl-2-(2H-1,2,3-triazol-2-yl)-N-(1-((5-(trifluoromethyl)pyrazin-2-yl)amino)butan-2-yl)benzamide] | 2510 nM | 15.8 nM |
| CC(C)C[C@@H](CNc1ccc(Cl)cn1)NC(=O)c1ccccc1-c1ccccc1 [Example 5, (S)—N-(1-((5-chloropyridin-2-yl)amino)-4-methylpentan-2-yl)-[1,1′-biphenyl]-2-carboxamide] | > 10000 nM | 1000 nM |
| CC(C)[C@@H](CNc1ccc(Cl)cn1)NC(=O)c1ccccc1-c1ccccc1 [Example 4, (S)—N-(1-((5-chloropyridin-2-yl)amino)-3-methylbutan-2-yl)-[1,1′-biphenyl]-2-carboxamide] | > 10000 nM | 158 nM |
| CC(C)[C@@H](CNC(=O)c1ccc(F)cc1)N(C)C(=O)c1ccccc1-c1ccccc1 [Example 56, (S)—N-(1-(4-fluorobenzamido)-3-methylbutan-2-yl)-N-methyl-[1,1′-biphenyl]-2-carboxamide] | > 3160 nM | 126 nM |
| CN(C(=O)c1ccccc1-c1ccccc1)[C@H](CNc1ccc(Cl)cn1)C(C)(C)C [Example 12, (S)—N-(1-((5-chloropyridin-2-yl)amino)-3,3-dimethylbutan-2-yl)-N-methyl-[1,1′-biphenyl]-2-carboxamide] | > 10000 nM | 1000 nM |
| Cc1nc(C(=O)N(C)[C@H](CNc2ccc(Cl)cn2)C(C)C)c(-c2ccccc2)s1 [Example 26, (S)—N-(1-((5-chloropyridin-2-yl)amino)-3-methylbutan-2-yl)-N,2-dimethyl-5-phenylthiazole-4-carboxamide] | 2000 nM | 31.6 nM |
| CC[C@@H](CNc1ccc(C(F)(F)F)cn1)N(C)C(=O)c1nc(C)ccc1-n1nccn1 [Example 48, (S)—N,6-dimethyl-3-(2H-1,2,3-triazol-2-yl)-N-(1-((5-(trifluoromethyl)pyridin-2-yl)amino)butan-2-yl)picolinamide] | 2510 nM | 12.6 nM |
| CC(C)[C@@H](COc1nccc(-c2ccccc2)n1)N(C)C(=O)c1ccccc1-c1ccccc1 [Example 32, (S)—N-methyl-N-(3-methyl-1-((4-phenylpyrimidin-2-yl)oxy)butan-2-yl)-[1,1′-biphenyl]-2-carboxamide] |  | 200 nM |
| CC(C)[C@@H](COCc1ccc(F)cc1)N(C)C(=O)c1ccccc1-c1ccccc1 [Example 29, (S)—N-(1-((4-fluorobenzyl)oxy)-3-methylbutan-2-yl)-N-methyl-[1,1′-biphenyl]-2-carboxamide] |  | 1580 nM |
| Cc1cc(C)nc(NC[C@H](C(C)C)N(C)C(=O)c2ccccc2-c2ccccc2)n1 [Example 37, (S)—N-(1-((4,6-dimethylpyrimidin-2-yl)amino)-3-methylbutan-2-yl)-N-methyl-[1,1′-biphenyl]-2-carboxamide] |  | 79.4 nM |
| CC(C)[C@@H](CNc1ccc(Cl)cn1)N(C(=O)c1ccccc1-c1ccccc1)C1CC1 [Example 15, (S)—N-(1-((5-chloropyridin-2-yl)amino)-3-methylbutan-2-yl)-N-cyclopropyl-[1,1′-biphenyl]-2-carboxamide] | > 10000 nM |  |
| CC(C)[C@@H](CNc1ncc2ccccc2n1)N(C)C(=O)c1ccccc1-c1ccccc1 [Example 36, (S)—N-methyl-N-(3-methyl-1-(quinazolin-2-ylamino)butan-2-yl)-[1,1′-biphenyl]-2-carboxamide] |  | 63.1 nM |
| CC(C)[C@@H](COc1ncc2ccccc2n1)N(C)C(=O)c1ccccc1-c1ccccc1 [Example 31, (S)—N-methyl-N-(3-methyl-1-(quinazolin-2-yloxy)butan-2-yl)-[1,1′-biphenyl]-2-carboxamide] |  | 200 nM |
| CC[C@@H](CNc1ccc(C(F)(F)F)cn1)N(C)C(=O)c1cc(Cl)ccc1-n1nccn1 [Example 42, (S)-5-chloro-N-methyl-2-(2H-1,2,3-triazol-2-yl)-N-(1-((5-(trifluoromethyl)pyridin-2-yl)amino)butan-2-yl)benzamide] | 1000 nM |  |
| CC(C)[C@@H](COc1nc2ccccc2n1C)N(C)C(=O)c1ccccc1-c1ccccc1 [Example 33, (S)—N-methyl-N-(3-methyl-1-((1-methyl-1H-benzo[d]imidazol-2-yl)oxy)butan-2-yl)-[1,1′-biphenyl]-2-carboxamide] |  | 100 nM |
| CC[C@@H](CNc1cccc(C)n1)N(C)C(=O)c1cc(Cl)ccc1-n1nccn1 [Example 53, (S)-5-chloro-N-methyl-N-(1-((6-methylpyridin-2-yl)amino)butan-2-yl)-2-(2H-1,2,3-triazol-2-yl)benzamide] |  | 251 nM |
| Cc1nc(-c2ccccc2)c(C(=O)N[C@H](CNc2ccc(Cl)cn2)CC(C)C)s1 [Example 7, (S)—N-(1-((5-chloropyridin-2-yl)amino)-4-methylpentan-2-yl)-2-methyl-4-phenylthiazole-5-carboxamide] |  | 1580 nM |
| CC(C)[C@@H](CNc1ccc(Cl)cn1)N(C)C(=O)c1cn(C)c2ccccc12 [Example 50, (S)—N-(1-((5-chloropyridin-2-yl)amino)-3-methylbutan-2-yl)-N,1-dimethyl-1H-indole-3-carboxamide] |  | 631 nM |
